This passage reports IC50 results from ChEMBL document CHEMBL1146786, “Lingshuiol, a novel polyhydroxyl compound with strongly cytotoxic activity from the marine dinoflagellate Amphidinium sp” (Bioorg Med Chem Lett, 2004).

Structures are written as SMILES.

In general, IC50 refers to the concentration that gives 50% inhibition.

One assay has as its system A549. As to the kind of experiment: In vitro cytotoxic activity of compound against A-549 cell line. Type of assay: functional, cell-based. To be noted: Homo sapiens.
Another assay has as its system HL-60. Nature of the assay: In vitro cytotoxic activity of compound against HL-60 cell line. Type of assay: functional, cell-based. To be noted: Homo sapiens.

In the case of `C=CCCCCCCCCCC/C=C/C(O)C(O)C1OC(C(O)C(O)C(=C)CCC(O)C2CC(O)C(O)C(C(O)C(O)/C=C(\C)CC(O)CC(O)C(O)C(O)C(O)C(O)C(C)CC(O)C(O)CC(C)/C=C/CCC(O)CC(=O)/C=C/CCCCC(O)CO)O2)CC(O)C1O` (configuration not stated) [LINGSHUIOL], the values for the IC50 in the assay with A549 and with HL-60 were 210 nM and 230 nM, respectively.
